# DBAASP
# Assays:
# Experiment in all cases: ≥ marks a high value that may be exact or a test limit, other limits are often not marked, values filed in µg/mL are converted to µM
# Candida albicans = test system: Candida albicans
# Serratia marcescens = test system: Serratia marcescens
# Saccharomyces cerevisiae = test system: Saccharomyces cerevisiae
# Salmonella typhimurium = test system: Salmonella typhimurium
# Shigella dysenteriae = test system: Shigella dysenteriae
# Escherichia coli = test system: Escherichia coli
# Bacillus subtilis = test system: Bacillus subtilis
# Micrococcus luteus = test system: Micrococcus luteus
# Pseudomonas aeruginosa = test system: Pseudomonas aeruginosa
# [1] = test system: Staphylococcus epidermidis
# Proteus mirabilis = test system: Proteus mirabilis
# Escherichia coli BL21AI = test system: Escherichia coli BL21AI
# [2] = test system: Micrococcus luteus ATCC 10240
# Staphylococcus aureus = test system: Staphylococcus aureus
# Klebsiella pneumoniae = test system: Klebsiella pneumoniae
SMILES,MIC (Candida albicans) [µM],MIC (Serratia marcescens) [µM],MIC (Saccharomyces cerevisiae) [µM],MIC (Salmonella typhimurium) [µM],MIC (Shigella dysenteriae) [µM],MIC (Escherichia coli) [µM],MIC (Bacillus subtilis) [µM],MIC (Micrococcus luteus) [µM],MIC (Pseudomonas aeruginosa) [µM],MIC [1] [µM],MIC (Proteus mirabilis) [µM],MIC (Escherichia coli BL21AI) [µM],MIC [2] [µM],MIC (Staphylococcus aureus) [µM],MIC (Klebsiella pneumoniae) [µM]
CC[C@H](C)[C@H](NC(=O)CN)C(=O)N[C@@H](CC(C)C)C(=O)N[C@@H](CC(=O)O)C(=O)N[C@H](C(=O)N[C@@H](CC(C)C)C(=O)N[C@@H](CCCCN)C(=O)N[C@@H](CCC(N)=O)C(=O)N[C@@H](Cc1ccccc1)C(=O)N[C@@H](C)C(=O)N[C@@H](CCCCN)C(=O)NCC(=O)N[C@H](C(=O)NCC(=O)N[C@@H](CCCCN)C(=O)N[C@@H](CC(=O)O)C(=O)N[C@@H](CC(C)C)C(=O)N[C@H](C(=O)N[C@@H](CCCCN)C(=O)NCC(=O)N[C@@H](C)C(=O)N[C@@H](C)C(=O)N[C@@H](CCC(N)=O)C(=O)NCC(=O)N[C@H](C(=O)N[C@@H](CC(C)C)C(=O)O)C(C)C)C(C)C)C(C)C)[C@@H](C)O [GILDTLKQFAKGVGKDLVKGAAQGVL],> 38.1,≥ 38.1,9.52,28.5,9.52,9.52,19,0.952,19,28.5,19,,,,
CC[C@H](C)[C@H](NC(=O)[C@H](CCCN=C(N)N)NC(=O)[C@H](CCCN=C(N)N)NC(=O)[C@@H]1CCCN1C(=O)[C@@H]1CCCN1C(=O)[C@H](CCCN=C(N)N)NC(=O)[C@@H]1CCCN1C(=O)[C@H](CCCN=C(N)N)NC(=O)[C@@H]1CCCN1C(=O)[C@H](CC(C)C)NC(=O)[C@H](Cc1ccc(O)cc1)NC(=O)[C@@H]1CCCN1C(=O)[C@@H]1CCCN1C(=O)[C@H](CCCCN)NC(=O)[C@H](CC(=O)O)NC(=O)[C@@H](N)C(C)C)C(=O)N[C@@H](Cc1ccc(O)cc1)C(=O)N[C@@H](CC(N)=O)C(=O)N[C@@H](CC(N)=O)C(=O)N[C@@H](CCCN=C(N)N)C(N)=O [VDKPPYLPRPRPPRRIYNNR],,,,,,,,,,,,3.19,3.19,,
CC(C)C[C@H](NC(=O)[C@H](C)NC(=O)CNC(=O)[C@H](CC(C)C)NC(=O)[C@@H](N)Cc1ccccc1)C(=O)N[C@@H](Cc1ccccc1)C(=O)N[C@@H](CCCCN)C(=O)N[C@@H](Cc1c[nH]c2ccccc12)C(=O)N[C@@H](C)C(=O)N[C@@H](CO)C(=O)N[C@@H](CCCCN)C(=O)O [FLGALFKWASK],,,,≥ 78.9,19.7,19.7,9.86,≥ 39.4,158,19.7,≥ 158,,,9.86,9.86

# Next, values leading:
MIC (Candida albicans) [µM],MIC (Serratia marcescens) [µM],MIC (Saccharomyces cerevisiae) [µM],MIC (Salmonella typhimurium) [µM],MIC (Shigella dysenteriae) [µM],MIC (Escherichia coli) [µM],MIC (Bacillus subtilis) [µM],MIC (Micrococcus luteus) [µM],MIC (Pseudomonas aeruginosa) [µM],MIC [1] [µM],MIC (Proteus mirabilis) [µM],MIC (Escherichia coli BL21AI) [µM],MIC [2] [µM],MIC (Staphylococcus aureus) [µM],MIC (Klebsiella pneumoniae) [µM],SMILES
,,,,,,,,,,,8.62,2.15,,,CC(C)C[C@H](NC(=O)[C@H](CCCN=C(N)N)NC(=O)[C@@H]1CCCN1C(=O)[C@H](Cc1cnc[nH]1)NC(=O)[C@@H]1CCCN1C(=O)[C@@H](NC(=O)[C@@H]1CCCN1C(=O)[C@H](CCCN=C(N)N)NC(=O)[C@@H]1CCCN1C(=O)[C@H](CO)NC(=O)[C@H](Cc1ccc(O)cc1)NC(=O)[C@@H]1CCCN1C(=O)[C@H](CCCN=C(N)N)NC(=O)[C@@H]1CCCN1C(=O)[C@H](CCCCN)NC(=O)CN)[C@@H](C)O)C(N)=O [GKPRPYSPRPTPHPRL]
,,,,,,,,,,,≥ 61,3.81,,,CC[C@H](C)[C@H](NC(=O)[C@@H]1CCCN1C(=O)[C@H](CCCN=C(N)N)NC(=O)[C@@H]1CCCN1C(=O)[C@H](Cc1cnc[nH]1)NC(=O)[C@H](CO)NC(=O)[C@@H](NC(=O)[C@@H]1CCCN1C(=O)[C@H](CCCN=C(N)N)NC(=O)[C@@H]1CCCN1C(=O)[C@H](CO)NC(=O)[C@H](Cc1ccc(O)cc1)NC(=O)[C@@H]1CCCN1C(=O)[C@H](CCCN=C(N)N)NC(=O)[C@@H]1CCCN1C(=O)[C@H](CCCCN)NC(=O)CN)[C@@H](C)O)C(=O)N[C@@H](CCCN=C(N)N)C(N)=O [GKPRPYSPRPTSHPRPIR]
